This note sets out measurements from patent US20240398775A1, “PHARMACEUTICAL COMPOSITION FOR USE IN TREATING COGNITIVE DECLINE OR FOR USE IN TREATING OVERWEIGHT OR OBESITY” (University of the Ryukyus, priority 2021, published 2024).

The subject of assay [1] is Thy-1+-eYFP neuronal cells. Kind of assay: Quantification of Thy1-eYFP neurons (CLARITY). The class given is in vivo, mouse. The note with it: HFD mice treated with PER, p<0.001, n=4. The source says: Coronal sections of mouse brains from Bregma-0.94 mm to Bregma-4.04 mm (5 mm wide, including the entire hippocampus from dorsal to ventral, medial to lateral) were fixed with 4% paraformaldehyde for 2 days, and then stained with the Golgi Cox staining system (FD Rapid GolgiStain™ Kit, MD 21041, USA). The impregnated tissues were cut into 100 μm sections and counterstained with crystal violet, and the total number of 15 μm spines on the apical dendrites of CA1 and DG and the percentage of morphologic spines (thin, stubby, mushroom) were examined using an Axio Observer Z1 (Carl Zeiss, Germany). Another set of paraformaldehyde-fixed 5 mm wide coronal sections of the brain, including the entire hippocampus, were processed using the passive CLARITY technique (PACT) (62) and examined through Lightsheet Z.1 (Carl Zeiss, Germany) using a 10× clear objective lens, and 3D images of Thy1-YFPH transgenic mice (the Jackson Laboratory, stock number: 003709, strain name: B6. Cg-Tg. (Thy1-YFP) 16Jrs/J) (63, 64), HFD-fed mice, and whole hippocampus of the HFD-fed mice with PER treatment. were acquired respectively. Maximum intensity projection images were acquired along the Z dimension, time dimension, and channel dimension to create an output image with the pixel containing the maximum value for all images in the stack at a particular pixel position. […]

For assay [2], the system named is GluA2 mRNA / (GluA1+GluA3+GluA4 mRNA). Kind of assay: qRT-PCR of AMPAR/NMDAR subunits in hippocampal regions, Ca2+ permeability index. The class given is in vivo, mouse. As for the experimental part: Hippocampal slices of 17 to 18 week old male C57BL/6J background mice (CD, HFD, and HFD with PER treatment) or 12 to 13 week old ob/ob mice (ob/ob, and ob/ob with PER treatment) were prepared as previously reported (56, 57). After preparing and collecting hippocampal slices, CA1, CA2, CA3, DG, and EC regions were separated from hippocampal slices using a dissection knife from […] background mice and ob/ob mice, respectively. The CA1, CA2, CA3, DG, and EC regions of mice were separated and immediately lysed in disposable homogenization tube BioMasher2 (trademark) (Nippi, Tokyo, Japan) using 0.5 mL of TRIzol RNA isolation reagent (Thermo Fisher Scientific, Wilmington, DE). Total RNA was individually extracted from each region according to the remaining protocol of the TRIzol RNA isolation reagent provided by the manufacturer (Thermo Fisher Scientific, Wilmington, DE). 1 μg of total RNA was reverse transcribed using PrimeScript RT Reagent Kit (Takara, Shiga, Japan). An aliquot of the obtained CDNA was diluted 1:10 and added to a master mix of TB Green Premix ExTaq (Takara, Shiga, Japan), and real-time PCR was performed using a 7500 Fast Real-Time PCR system (Applied Biosystems, Foster City, CA, USA) according to the manufacturer's instructions. The conditions for real-time PCR were as follows. 40 cycles of 95° C. for 30 seconds, then 95° C. for 5 seconds and 60° C. for 34 seconds. The fluorescence intensity was measured for each annealing step and the threshold cycle time was determined using 7500 software. In addition, relative expression levels of β-actin were normalized to respective controls (vehicle group). The relative expression level of the target gene in each sample was determined using a standard curve and further normalized to the expression level of β-actin of the same sample. The sequences of primers and probes for these genes are shown in Supplemental Table 2. The “ratio of GluA2 mRNA amount/(GluA1+GluA3+GluA4 mRNA amount” was used as a Ca^2+ permeability index.
GluA2 is edited at the Q/R site within the reentry M2 membrane loop region by adenosine deaminase (ADAR2), which acts on RNA type 2 involved in editing double-stranded RNA from adenosine (A) to inosine (I) (review, refer to 15, 16 and 17). Attempts were made to determine real-time quantitative reverse transcription polymerase chain reaction (qRT-PCR), subunit composition of AMPAR and NMDAR. Total RNA in hippocampal subregions (CA1, CA3, DG, EC) was separated, and quantitative analysis of mRNA of GluA1, GluA2, GluA3, and GluA4 for AMPAR, and GluN1, GluN2A, GluN2B, and GluN2C for NMDAR was performed by qRT-PCR. […] Based on the mRNA amount of each subunit, the ratio of GluA2 to other GluA subunits (FIG. 2B) was determined. The ratio was defined as a Ca^2+ permeability index.
A general note: In qPCR the cycle at which signal appears reflects the starting amount.

Assay [3] deals with Ca2+ permeable AMPAR (CP-AMPAR). Kind of assay: Ca2+ imaging (Fluo-3) of hippocampal brain slices, AMPA + CTZ application (CP-AMPA reaction). The format is cell-based, mouse.
Where [4] appears, read: HFD-fed mice with PER, ratio GluA2 mRNA/(GluA1+GluA3+GluA4 mRNA), N = 5.
Where [5] appears, read: HFD-fed mice with oral PER 5 mg/kg/day, AMPA 100 μM + CTZ 100 μM, N = 5.

For `N#Cc1ccccc1-c1cc(-c2ccccn2)cn(-c2ccccc2)c1=O` [PER, 3-(2-cyanophenyl)-5-(2-pyridyl)-1-phenyl-1,2-dihydropyridine-2-one], in assay [1], the “number of Thy-1+-eYFP neuronal cells in CA3” value is reported as “significantly restored”. Besides, in assay [2] (setting [4]), the “Ca2+-permeability index CA1” value was determined as 0.29 ± 0.11, the “Ca2+-permeability index CA3” value is listed as 0.26 ± 0.10, the “Ca2+-permeability index DG” value was determined as 0.22 ± 0.06 and the “Ca2+-permeability index EC” value is 0.30 ± 0.05. In addition, in assay [2] (HFD-fed mice, PER administration, N=5), the “Ca2+ permeability index via CA1, CA3, DG and EC” value is “returned to CD-fed mouse levels”. Besides, the “GluA2 mRNA expression in CA1” value in assay [2] (mice fed HFD with PER, qRT-PCR, p<0.05) was “significant increase”. Besides, in assay [3], the “increase in [Ca2+]i via pathological AMPARs” value is listed as “completely disappeared”; the “inhibitory effect on CP-AMPAR in EC, CA1, CA2, CA3 and DG” value was “significant inhibitory effect”. Besides, in assay [3] (setting [5]), the “CP-AMPA reaction CA1 (maximum value of NF525)” value is 1.00 ± 0.01, the “CP-AMPA reaction CA2 (maximum value of NF525)” value came to 1.00 ± 0.02, the “CP-AMPA reaction CA3 (maximum value of NF525)” value is 1.00 ± 0.01 and the “CP-AMPA reaction DG (maximum value of NF525)” value is 1.02 ± 0.01. Moreover, the “CP-AMPA reaction EC (maximum value of NF525)” value in assay [3] (setting [5]) is on record as 1.05 ± 0.05. Also, in assay [3] (acute slices from HFD-fed mice, 100 μM PER applied), the “elevation of [Ca2+]i via AMPAR” value is on record as “completely disappeared”. Moreover, in assay [3] (hippocampal slices from mice fed HFD and PER 5 mg/kg/day orally by hydrogel), the “transmission via AMPAR” value is recorded as “normalize transmission via AMPAR”.
